We go through 25 compounds from patent US8124766B2, “Inhibitors of diacylglycerol acyltransferase” (Madrigal Pharmaceuticals, Inc., priority 2008, dated 2012).

Structures can show the parent of a compound that is named as a salt.

The assay deals with DGAT. Briefly: DGAT Phospholipid FlashPlate Assay. Conditions: DGAT pellet, DAG-coated PL-FlashPlate, 14C-Pal-CoA, 37° C. for 1 hour; read-out: DGAT Inhibition Activity IC50. The assay is classed as biochemical. On the procedure:
DGAT Phospholipid FlashPlate Assay
Materials for the assay were: PL-FlashPlate: Phospholipid FlashPlates from PerkinElmer, catalog number SMP108; DAG (1,2-Dioleoyl-sn-glycerol) 10 mM suspended in water containing 0.1% Triton X-100; ^14C-Pal-CoA (palmitoyl coenzyme A, [palmitoyl-1-^14C]) from PerkinElmer, catalog number NEC-555 with a specific activity of 55 mCi/mmol; and DGAT pellet, with a protein concentration of 9.85 mg/ml.
Aqueous buffers were prepared or purchased as follows: The coating buffer (CB) was purchased from PerkinElmer, catalog number SMP900A; the reaction buffer (RB) was 50 mM Tris-HCl, pH 7.5, 100 mM NaCl, 0.01% BSA in water; the washing buffer (WB) is 50 mM Tris-HCl, pH 7.5, 100 mM NaCl, 0.05% deoxycholic acid sodium salt in water; the dilution buffer (DB) was 50 mM Tris-HCl, pH 7.5, 100 mM NaCl, 1 mM EDTA, 0.2% Triton X-100 in water.
1,2-Dioleoyl-sn-glycerol (DAG, 10 mmoles) was diluted to 500 μM with coating buffer (CB). The diluted DAG solution was then added to 384-well PL-FlashPlates at 60 μl per well, and incubated at room temperature for 2 days. The coated plates were then washed twice with washing buffer (WB) before use. Test compounds were serial diluted to 2000, 666.7, 222.2, 74.1, 24.7, 8.2, 2.7 and 0.9 μM in 100% DMSO. Diluted compound were further diluted 10 fold with reaction buffer (RB). ^14C-Pal-CoA was diluted to 8.3 μM with RB. The DGAT pellet was diluted to 0.13 mg protein/ml with dilution buffer (DB) immediately before it was added to the PL-FlashPlates to start the reaction. 20 μl of the RB-diluted compounds (or 10% DMSO in RB for Total and Blank), 15 μl of RB diluted 14C-Pal-CoA and 15 μl of DB diluted DGAT pellet (DB without DGAT for Blanks) were transferred to each well of the PL-FlashPlates. The reaction mixtures were incubated at 37° C. for 1 hour. The reactions were stopped by washing 3 times with WB. Plates were sealed with Top-seal and read on a Topcount instrument.
Calculation of IC50: The IC50 values for each compound were generated using an Excel template. The Topcount rpm readings of Total and Blank were used as 0% and 100% inhibition. The percent inhibition values of reactions in the presence of compounds were calculated, and plotted against compound concentrations. All data were fitted into a Dose Response One Site model (4 parameter logistic model) as the following: (A+((B−A)/(1+((x/C)^D)))), with A and B as the bottom and top of the curve (highest and lowest inhibition), respectively, and C as IC50 and D as Hill Coefficient of the compound.
As a reminder, the IC50 is the concentration at which inhibition is half-maximal. Turning to `CCn1c(C(=O)Nc2ccc(C3CCN(C(=O)CC(C)(C)C(=O)O)CC3)cc2)cc2c(C)cccc21` [Example 8, 4-(4-{4-[(1-Ethyl-4-methyl-4H-indole-2-carbonyl)-amino]-phenyl}-piperidin-1-yl)-2,2-dimethyl-4-oxo-butyric acid], the half-maximal inhibitory concentration (IC50) worked out at 528 nM. The same measure for `CCOc1cccc2c1cc(C(=O)Nc1ccc(N3CCN(C(=O)[C@H]4CC[C@H](C(=O)O)CC4)CC3)cc1)n2CC` [Example 29, trans-4-(4-{4-[(4-Ethoxy-1-ethyl-1H-indole-2-carbonyl)-amino]-phenyl}-piperazine-1-carbonyl)-cyclohexanecarboxylic acid]: 980 nM. Then `CCn1c(C(=O)Nc2ccc(N[C@H]3CCN(C(=O)NC(C)(C)C)C3)nc2)cc2c(C)cccc21` [Example 58, 1-Ethyl-4-methyl-1H-indole-2-carboxylic acid [6-((8)-1-tert-butylcarbamoyl-pyrrolidin-3-ylamino)-pyridin-3-yl]-amide hydrochloride], with 247 nM. For `CCn1c(C(=O)Nc2ccc(C3CCN(C(=O)CC4(C(=O)O)CCCC4)CC3)cc2)cc2c(Cl)c(Cl)ccc21` [Example 62, 1-[2-(4-{4-[(4,5-Dichloro-1-ethyl-1H-indole-2-carbonyl)-amino]-phenyl}-piperidin-1-yl)-2-oxo-ethyl]-cyclopentanecarboxylic acid], the IC50 worked out at 240 nM.

On to `COCCN(C)c1ccc(NC(=O)c2cc3ccccc3s2)cn1` [Example 34, Benzo[b]thiophene-2-carboxylic acid {6-[(2-methoxy-ethyl)-methyl-amino]-pyridin-3-yl}-amide], for which the IC50 stood at 683 nM. With `CCn1c(C(=O)Nc2ccc(N3CCN(C(=O)OC(C)(C)C)CC3)nc2)cc2cc(Cl)ccc21` [Example 23, 4-{5-[(5-Chloro-1-ethyl-1H-indole-2-carbonyl)-amino]-pyridin-2-yl}-piperazine-1-carboxylic acid tert-butyl ester], the IC50 is 571 nM. The same measure for `CCn1c(C(=O)Nc2ccc(N3CCN(C(=O)CC(C)(C)C(=O)O)CC3)nc2)cc2c(C(F)(F)F)cccc21` [Example 15, 4-(4-{5-[(1-Ethyl-4-trifluoromethyl-1H-indole-2-carbonyl)-amino]-pyridin-2-yl}-piperazin-1-yl)-2,2-dimethyl-4-oxo-butyric acid]: 183 nM. Take `CCOc1cccc2c1cc(C(=O)Nc1ccc(N3CCN(C(=O)CC(C)(C)C(=O)O)CC3)cc1)n2CC` [Example 44, 4-(4-{4-[(4-Ethoxy-1-ethyl-1H-indole-2-carbonyl)-amino]-phenyl}-piperazin-1-yl)-2,2-dimethyl-4-oxo-butyric acid]: the IC50 was found to be 489 nM. The same measure for `CCn1c(C(=O)Nc2ccc(N3CCN(C(=O)OC(C)(C)C)CC3)nc2)cc2c(OC)cccc21` [Example 20, 4-{5-[(1-Ethyl-4-methoxy-1H-indole-2-carbonyl)-amino]-pyridin-2-yl}-piperazine-1-carboxylic acid tert-butyl ester]: 84 nM; for `CCn1c(C(=O)Nc2ccc(C3CCN(C(=O)CC(C(=O)O)c4ccccc4)CC3)cc2)cc2c(Cl)c(Cl)ccc21` (stereo not shown) [Example 61, 4-(4-{4-[(4,5-Dichloro-1-ethyl-1H-indole-2-carbonyl)-amino]-phenyl}-piperidin-1-yl)-4-oxo-2-phenyl-butyric acid]: 790 nM. For `CCn1c(C(=O)Nc2ccc(N3CCN(C(=O)CC(C)(C)C(=O)O)CC3)nc2)cc2c(Cl)c(Cl)ccc21` [Example 19, 4-(4-{5-[(4,5-Dichloro-1-ethyl-1H-indole-2-carbonyl)-amino]-pyridin-2-yl}-piperazin-1-yl)-2,2-dimethyl-4-oxo-butyric acid], the IC50 is 80 nM. As to `CCCn1c(C(=O)Nc2ccc(N(C)CCOC)nc2)cc2ccccc21` [Example 41, 1-Propyl-1H-indole-2-carboxylic acid {6-[(2-methoxy-ethyl)-methyl-amino]-pyridin-3-yl}-amide hydrochloride], the IC50 was determined as 937 nM. In the case of `CCOC(=O)N1CC[C@H](Nc2ccc(NC(=O)c3cc4cc(OC)ccc4n3CC)cn2)C1` [Example 51, (S)-3-{5-[(1-Ethyl-5-methoxy-1H-indole-2-carbonyl)-amino]-pyridin-2-ylamino}-pyrrolidine-1-carboxylic acid ethyl ester hydrochloride], the IC50 is 343 nM. The same measure for `COCCN(C)c1ccc(NC(=O)c2oc3c(F)cccc3c2C)cn1` [Example 82, 7-Fluoro-3-methyl-benzofuran-2-carboxylic acid {6-[(2-methoxy-ethyl)-methyl-amino]pyridin-3-yl}-amide]: 430 nM; for `CCn1c(C(=O)Nc2ccc(N(C)CCOC)nc2)cc2cc(OCc3ccccc3)ccc21` [Example 40, 5-Benzyloxy-1-ethyl-1H-indole-2-carboxylic acid {6-[(2-methoxy-ethyl)-methyl-amino]-pyridin-3-yl}-amide]: 797 nM. `CCn1c(C(=O)Nc2ccc(N3CCN(C(=O)CC4SC(=O)NC4=O)CC3)cc2)cc2c(Cl)c(Cl)ccc21` (stereo not shown) [Example 69, 4,5-Dichloro-1-ethyl-1H-indole-2-carboxylic acid (4-{4-[2-(2,4-dioxo-thiazolidin-5-yl)-acetyl]-piperazin-1-yl}-phenyl)-amide]: the IC50 was determined as 236 nM.

`COCc1c(C(=O)Nc2ccc(N3CCN(C(=O)OC(C)(C)C)CC3)cc2)oc2ccccc12` [Example 79, 4-{4-[(3-Methoxymethyl-benzofuran-2-carbonyl)-amino]-phenyl}-piperazine-1-carboxylic acid tert-butyl ester]: the IC50 was 940 nM. For `COCCN(C)c1ncc(NC(=O)c2sc3ccccc3c2C)cn1` [Example 36, 3-Methyl-benzo[b]thiophene-2-carboxylic acid {2-[(2-methoxy-ethyl)-methyl-amino]-pyrimidin-5-yl}-amide hydrochloride], the IC50 is 856 nM. Turning to `CCn1c(C(=O)Nc2ccc(N3CCN(C(=O)CC(C(=O)O)C(C)C)CC3)cc2)cc2c(Cl)c(Cl)ccc21` (stereo not shown) [Example 64, 2-[2-(4-{4-[(4,5-Dichloro-1-ethyl-1H-indole-2-carbonyl)-amino]-phenyl}-piperazin-1-yl)-2-oxo-ethyl]-3-methyl-butyric acid], the IC50 turned out to be 164 nM. `CCOc1cccc2c1cc(C(=O)Nc1ccc(C3CCN(C(=O)CC(C)(C)C(=O)O)CC3)cc1)n2CC` [Example 7, 4-(4-{4-[(4-Ethoxy-1-ethyl-1H-indole-2-carbonyl)-amino]-phenyl}-piperidin-1-yl)-2,2-dimethyl-4-oxo-butyric acid]: the IC50 worked out at 316 nM. For the compound `CCOc1cccc2c1cc(C(=O)Nc1ccc(C3CCN(C(=O)[C@@H]4CCC[C@H]4C(=O)O)CC3)cc1)n2CC` [Example 32, (1R,2R)-2-(4-{4-[(4-Ethoxy-1-ethyl-1,1-indole-2-carbonyl)-amino]-phenyl}-piperidine-1-carbonyl)-cyclopentanecarboxylic acid], the IC50 is 495 nM.

As to `CCn1c(C(=O)Nc2ccc(N(C)CCOC)nc2)cc2cc(OC)ccc21` [Example 39, 1-Ethyl-5-methoxy-1H-indole-2-carboxylic acid {6-[(2-methoxy-ethyl)-methyl-amino]pyridin-3-yl}-amide hydrochloride], the IC50 worked out at 312 nM. As for `CCn1c(C(=O)Nc2ccc(N3CCN(C(=O)CC(C)(C)C(=O)O)CC3)cc2)cc2c(Cl)c(Cl)ccc21` [Example 60, 4-(4-{4-[(4,5-Dichloro-1-ethyl-1H-indole-2-carbonyl)-amino]-phenyl}-piperazin-1-yl)-2,2-dimethyl-4-oxo-butyric acid], the IC50 is 210 nM.

For `CCn1c(C(=O)Nc2ccc(N3CCN(C(=O)OC(C)(C)C)CC3)nc2)cc2c(OC)c(OC)ccc21` [Example 22, 4-{5-[(1-Ethyl-4,5-dimethoxy-1H-indole-2-carbonyl)-amino]-pyridin-2-yl}-piperazine-1-carboxylic acid tert-butyl ester], the IC50 worked out at 86 nM.

As for `CCn1c(C(=O)Nc2ccc(N3CCN(C(=O)CC(C)(C)C(=O)O)CC3)nc2)cc2c(OCC(C)C)cccc21` [Example 13, 4-(4-{5-[(1-Ethyl-4-isobutoxy-1H-indole-2-carbonyl)-amino]-pyridin-2-yl}-piperazin-1-yl)-2,2-dimethyl-4-oxo-butyric acid hydrochloric acid], the IC50 came out at 283 nM.
